Converted amounts (≈) assume the structure as drawn.
Columns and labels:
Staphylococcus aureus = test: MIC, standard microtiter dilution method (CLSI M07-A9); type: cell-based; conditions: Cation adjusted Mueller-Hinton Broth, 37° C., 24 hours, read-out: MIC S. aureus
Protocol: (§1) The products of the present invention were tested for their activity against Acinetobacter baumannii (A. baumannii) as well as against the following bacteria: Staphylococcus aureus (S. aureus), Streptococcus pneumoniae (S. pneumoniae), Enterococcus faecium (E. faecium), Pseudomonas aeruginosa (P. aeruginosa), Klebsiella pneumoniae (K. pneumoniae) and Escherichia coli (E. coli). Minimal inhibitory concentrations (MICs) were determined using a standard microtiter dilution method, according to the Clinical and Laboratory Standards Institute (CLSI) procedures, in particular according to […]-A9: “Methods for Dilution Antimicrobial Susceptibility Tests for Bacteria That Grow Aerobically; Approved Standard-Ninth Edition”. Briefly, compounds were dissolved with dimethyl sulfoxide (DMSO) at 12.8 mg/mL. Serial two-fold dilutions of compounds were performed in DMSO and 1 μl of each dilution were transferred into microtiter culture plates, followed by 100 μl of inoculated culture media to give a final microorganism concentration of 5×10^5 colony-forming units/mL. Plates were incubated at 37° C. for 24 hours and MICs determined as the lowest compound concentration that inhibited growth. Media used in determinations were Cation adjusted Mueller-Hinton Broth for all the microorganisms except for S. pneumoniae and E. faecium whose culture media were supplemented with 2.5% of lysed horse blood. Incubations were performed at air atmosphere except S. pneumoniae cultures that were incubated with 5% CO2 atmosphere.

Escherichia coli = test: as above; type: cell-based; conditions: Cation adjusted Mueller-Hinton Broth, 37° C., 24 hours
Protocol: as §1

Klebsiella pneumoniae = test: as above; type: cell-based; conditions: Cation adjusted Mueller-Hinton Broth, 37° C., 24 hours, read-out: MIC K. pneumoniae
Protocol: as §1

Streptococcus pneumoniae = test: as above; type: cell-based; conditions: media with 2.5% lysed horse blood, 5% CO2, 37° C., 24 hours, read-out: MIC S. pneumoniae
Protocol: as §1

Acinetobacter baumannii = test: as above; type: cell-based; conditions: Cation adjusted Mueller-Hinton Broth, 37° C., 24 hours
Protocol: as §1

Enterococcus faecium = test: as above; type: cell-based; conditions: media with 2.5% lysed horse blood, 37° C., 24 hours, read-out: MIC E. faecium
Protocol: as §1

Pseudomonas aeruginosa = test: as above; type: cell-based; conditions: Cation adjusted Mueller-Hinton Broth, 37° C., 24 hours, read-out: MIC P. aeruginosa
Protocol: as §1

SMILES	MIC (Staphylococcus aureus)	MIC (Escherichia coli)	MIC (Klebsiella pneumoniae)	MIC (Streptococcus pneumoniae)	MIC (Acinetobacter baumannii)	MIC (Enterococcus faecium)	MIC (Pseudomonas aeruginosa)	melting point
NC(=O)N1CCC[C@@H]1C(=O)NNc1ccc(F)cc1 [Example 2, (R)-2-(2-(4-fluorophenyl)hydrazinecarbonyl)pyrrolidine-1-carboxamide]	> 128 µg/mL	> 128 µg/mL	> 128 µg/mL	> 128 µg/mL	4 µg/mL (≈ 15 µM)	> 128 µg/mL	> 128 µg/mL	–
NC(=O)N1CCC[C@H]1C(=O)NNc1ccc(F)cc1 [Example 3, (S)-2-(2-(4-fluorophenyl) hydrazinecarbonyl) pyrrolidine-1-carboxamide]	> 128 µg/mL	> 128 µg/mL	> 128 µg/mL	> 128 µg/mL	4 µg/mL (≈ 15 µM)	> 128 µg/mL	> 128 µg/mL	–
NC(=O)N1CCCC1C(=O)NNc1ccc(F)cc1 (stereo not drawn) [Example 4, 2-(2-(4-fluorophenyl)hydrazinecarbonyl)pyrrolidine-1-carboxamide]	> 128 µg/mL	> 128 µg/mL	> 128 µg/mL	> 128 µg/mL	2 µg/mL (≈ 7.51 µM)	> 128 µg/mL	> 128 µg/mL	140 to 144 °C
NC(=O)N1CCCC1C(=O)NNc1ccc(OC(F)(F)F)cc1 (stereo not drawn) [Example 7, 2-(2-(4-(trifluoromethoxy)phenyl)hydrazinecarbonyl)pyrrolidine-1-carboxamide]	128 µg/mL (≈ 385 µM)	> 128 µg/mL	> 128 µg/mL	> 128 µg/mL	8 µg/mL (≈ 24.1 µM)	> 128 µg/mL	> 128 µg/mL	–
NC(=O)N1CCCC1C(=O)NNc1ccc(Cl)cc1F (stereo not drawn) [Example 9, 2-(2-(4-chloro-2-fluorophenyl)hydrazinecarbonyl)pyrrolidine-1-carboxamide]	> 128 µg/mL	> 128 µg/mL	> 128 µg/mL	> 128 µg/mL	8 µg/mL (≈ 26.6 µM)	> 128 µg/mL	> 128 µg/mL	–
COc1ccc(NNC(=O)C2CCCN2C(N)=O)cc1 (stereo not drawn) [Example 10, 2-(2-(4-methoxyphenyl)hydrazinecarbonyl)pyrrolidine-1-carboxamide]	> 128 µg/mL	> 128 µg/mL	> 128 µg/mL	> 128 µg/mL	2 µg/mL (≈ 7.19 µM)	> 128 µg/mL	> 128 µg/mL	–
NC(=O)N1CCCC1C(=O)NNc1ccc2c(c1)OCCO2 (stereo not drawn) [Example 11, 2-(2-(2,3-dihydrobenzo[b][1,4]dioxin-6-yl) hydrazinecarbonyl)pyrrolidine-1-carboxamide]	> 128 µg/mL	> 128 µg/mL	> 128 µg/mL	> 128 µg/mL	8 µg/mL (≈ 26.1 µM)	> 128 µg/mL	> 128 µg/mL	–
CC(=O)N1CCC[C@@H]1C(=O)NNc1ccc(F)cc1 [Example 14, (R)-1-acetyl-N′-(4-fluorophenyl)pyrrolidine-2-carbohydrazide]	> 128 µg/mL	> 128 µg/mL	> 128 µg/mL	> 128 µg/mL	2 µg/mL (≈ 7.54 µM)	> 128 µg/mL	> 128 µg/mL	–
O=C(NNc1ccc(F)cc1)C1CCCN1O (stereo not drawn) [Example 15, N′-(4-fluorophenyl)-1-hydroxypyrrolidine-2-carbohydrazide]	> 128 µg/mL	> 128 µg/mL	> 128 µg/mL	> 128 µg/mL	1 µg/mL (≈ 4.18 µM)	> 128 µg/mL	> 128 µg/mL	–
CN1CCCC1(C)C(=O)NNc1ccc(F)cc1 (stereo not drawn) [Example 16, N′-(4-fluorophenyl)-1,2-dimethylpyrrolidine-2-carbohydrazide]	> 128 µg/mL	> 128 µg/mL	> 128 µg/mL	> 128 µg/mL	0.25 µg/mL (≈ 0.995 µM)	> 128 µg/mL	> 128 µg/mL	–
Cl.O=C(NNc1ccc(F)cc1)C1CCCN1C(=O)N1CCNCC1 (stereo not drawn) [Example 18, N′-(4-fluorophenyl)-1-(piperazine-1-carbonyl)pyrrolidine-2-carbohydrazide hydrochloride]	128 µg/mL	> 128 µg/mL	> 128 µg/mL	> 128 µg/mL	8 µg/mL	> 128 µg/mL	> 128 µg/mL	–
O=C(NNc1ccc(F)cc1)[C@@H]1CCCN1CC1CC1 [Example 25, (S)-1-(cyclopropylmethyl)-N′-(4-fluorophenyl)pyrrolidine-2-carbohydrazide]	> 128 µg/mL	> 128 µg/mL	> 128 µg/mL	> 128 µg/mL	0.25 µg/mL (≈ 0.901 µM)	> 128 µg/mL	> 128 µg/mL	–
CN1CC2CC2C1C(=O)NNc1ccc(F)cc1 (stereo not drawn) [Example 26, N′-(4-fluorophenyl)-3-methyl-3-azabicyclo[3.1.0]hexane-2-carbohydrazide]	> 128 µg/mL	> 128 µg/mL	> 128 µg/mL	> 128 µg/mL	0.25 µg/mL (≈ 1 µM)	> 128 µg/mL	> 128 µg/mL	–
Cl.N=C(N)N1CCCC1C(=O)NNc1ccc(F)cc1 (stereo not drawn) [Example 30, 2-(2-(4-fluorophenyl)hydrazinecarbonyl)pyrrolidine-1-carboximidamide hydrochloride]	> 128 µg/mL	> 128 µg/mL	> 128 µg/mL	> 128 µg/mL	2 µg/mL	> 128 µg/mL	> 128 µg/mL	–
